Source: article PMC4515248 (Applied Biochemistry and Biotechnology, 2015)

Biological target: T1, CuCDH (Cerrena unicolor, UniProt S5R9V1)
T1 construct: native secreted intact flavocytochrome (heme b plus FAD domains) purified from culture supernatant; signal peptide (18 aa) removed; precursor 771 aa
Assay: UV-visible spectrum of purified enzyme
Format: binding
Conditions: 100 mM sodium acetate, pH 4.5; oxidized and lactose-reduced

T1 sequence (S5R9V1 19-771): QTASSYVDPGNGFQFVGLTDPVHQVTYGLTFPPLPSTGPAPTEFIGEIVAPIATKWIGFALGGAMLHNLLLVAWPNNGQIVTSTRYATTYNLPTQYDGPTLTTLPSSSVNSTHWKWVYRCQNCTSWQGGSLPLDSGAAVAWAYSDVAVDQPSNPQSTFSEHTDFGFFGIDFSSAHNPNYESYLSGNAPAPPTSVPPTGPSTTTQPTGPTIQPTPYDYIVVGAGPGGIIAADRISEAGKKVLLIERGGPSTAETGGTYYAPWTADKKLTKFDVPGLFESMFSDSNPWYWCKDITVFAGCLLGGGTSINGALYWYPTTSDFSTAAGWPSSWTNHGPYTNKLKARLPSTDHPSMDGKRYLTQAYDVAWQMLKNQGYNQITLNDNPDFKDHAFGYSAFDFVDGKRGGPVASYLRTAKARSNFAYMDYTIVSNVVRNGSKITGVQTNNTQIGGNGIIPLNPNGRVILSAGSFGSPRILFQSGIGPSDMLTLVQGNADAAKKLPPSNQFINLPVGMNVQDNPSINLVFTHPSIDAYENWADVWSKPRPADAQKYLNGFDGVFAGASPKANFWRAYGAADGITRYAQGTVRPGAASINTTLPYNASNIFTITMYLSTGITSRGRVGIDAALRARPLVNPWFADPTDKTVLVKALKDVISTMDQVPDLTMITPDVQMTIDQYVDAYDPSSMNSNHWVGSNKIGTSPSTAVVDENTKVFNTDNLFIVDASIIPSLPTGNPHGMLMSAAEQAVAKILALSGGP

Structure (SMILES): Cc1cc2nc3c(=O)[nH]c(=O)nc-3n(C[C@H](O)[C@H](O)[C@H](O)COP(=O)(O)OP(=O)(O)OC[C@H]3O[C@@H](n4cnc5c(N)ncnc54)[C@H](O)[C@@H]3O)c2cc1C [FAD]
- UV-visible spectrum of purified enzyme: indicated the presence of heme and flavin cofactors in the protein
